Test results reported in the supplement of paper PMC12076712.

Key:
Test in all cases: pIC50, kinobeads binding competition
DDR2 = target: T1, DDR2 (UniProt Q16832); details: cell material: Lysate mix
T1 sequence (whole entry): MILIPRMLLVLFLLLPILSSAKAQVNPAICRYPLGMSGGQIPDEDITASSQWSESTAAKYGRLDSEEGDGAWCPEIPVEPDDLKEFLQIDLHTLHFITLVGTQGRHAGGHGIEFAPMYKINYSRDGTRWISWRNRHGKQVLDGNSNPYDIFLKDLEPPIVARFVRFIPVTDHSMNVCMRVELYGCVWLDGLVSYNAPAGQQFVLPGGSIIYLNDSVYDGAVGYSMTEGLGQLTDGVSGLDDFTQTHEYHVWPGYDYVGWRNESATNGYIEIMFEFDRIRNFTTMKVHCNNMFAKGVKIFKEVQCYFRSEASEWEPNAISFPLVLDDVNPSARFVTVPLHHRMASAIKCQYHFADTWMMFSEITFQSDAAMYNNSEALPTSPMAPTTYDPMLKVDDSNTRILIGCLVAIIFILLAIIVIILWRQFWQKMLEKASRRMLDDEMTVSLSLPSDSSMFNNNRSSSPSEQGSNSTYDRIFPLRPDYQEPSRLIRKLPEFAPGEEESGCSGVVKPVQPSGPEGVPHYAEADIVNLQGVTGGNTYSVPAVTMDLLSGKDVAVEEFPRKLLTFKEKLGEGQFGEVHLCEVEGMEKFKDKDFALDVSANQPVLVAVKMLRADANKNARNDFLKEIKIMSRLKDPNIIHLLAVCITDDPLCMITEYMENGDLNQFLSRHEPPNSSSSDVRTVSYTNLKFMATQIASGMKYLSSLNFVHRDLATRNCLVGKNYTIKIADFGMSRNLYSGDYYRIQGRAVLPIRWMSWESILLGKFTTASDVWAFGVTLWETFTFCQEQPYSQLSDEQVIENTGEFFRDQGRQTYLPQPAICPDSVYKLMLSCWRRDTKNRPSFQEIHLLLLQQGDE
In short: (§1)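 pIC50 was obtained by fitting fold changes against vehicle to logistic dose-response curves with the R drc package, using biological duplicates. Kinobeads-bound proteins were digested and measured by TMT10 LC-MS/MS. Before this, either living Jurkat cells received nine compound concentrations (top 30 μM, 1:4 steps) for 60 min at 37 °C prior to lysis, or Jurkat lysate or a 1:1:1:1 HEK293/K-562/HepG2/placenta lysate mix received nine concentrations (top 30 μM, 1:5 steps) for 60 min at 4 °C.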

DYRK2 = target: T2, DYRK2 (UniProt Q92630)
T2 sequence (whole entry): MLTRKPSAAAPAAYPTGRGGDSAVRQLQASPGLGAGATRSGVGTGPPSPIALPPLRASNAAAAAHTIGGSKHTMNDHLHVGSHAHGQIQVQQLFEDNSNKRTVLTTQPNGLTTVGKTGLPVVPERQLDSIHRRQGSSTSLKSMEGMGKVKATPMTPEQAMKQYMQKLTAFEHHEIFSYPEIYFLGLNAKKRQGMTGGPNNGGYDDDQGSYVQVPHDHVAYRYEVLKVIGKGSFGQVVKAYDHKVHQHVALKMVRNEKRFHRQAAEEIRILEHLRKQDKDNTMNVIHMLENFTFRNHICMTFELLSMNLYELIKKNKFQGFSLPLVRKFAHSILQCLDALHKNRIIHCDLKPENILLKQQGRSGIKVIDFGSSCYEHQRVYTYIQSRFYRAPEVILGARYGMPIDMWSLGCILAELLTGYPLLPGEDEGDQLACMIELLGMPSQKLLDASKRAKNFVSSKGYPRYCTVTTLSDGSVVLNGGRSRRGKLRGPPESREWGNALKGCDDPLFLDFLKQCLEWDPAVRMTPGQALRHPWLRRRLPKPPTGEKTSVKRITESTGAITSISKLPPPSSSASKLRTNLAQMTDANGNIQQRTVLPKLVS
In short: as §1

FGR = FGR (UniProt P09769)
In short: as §1

INSR = INSR (UniProt P06213)
INSR, sequence (P06213 whole entry): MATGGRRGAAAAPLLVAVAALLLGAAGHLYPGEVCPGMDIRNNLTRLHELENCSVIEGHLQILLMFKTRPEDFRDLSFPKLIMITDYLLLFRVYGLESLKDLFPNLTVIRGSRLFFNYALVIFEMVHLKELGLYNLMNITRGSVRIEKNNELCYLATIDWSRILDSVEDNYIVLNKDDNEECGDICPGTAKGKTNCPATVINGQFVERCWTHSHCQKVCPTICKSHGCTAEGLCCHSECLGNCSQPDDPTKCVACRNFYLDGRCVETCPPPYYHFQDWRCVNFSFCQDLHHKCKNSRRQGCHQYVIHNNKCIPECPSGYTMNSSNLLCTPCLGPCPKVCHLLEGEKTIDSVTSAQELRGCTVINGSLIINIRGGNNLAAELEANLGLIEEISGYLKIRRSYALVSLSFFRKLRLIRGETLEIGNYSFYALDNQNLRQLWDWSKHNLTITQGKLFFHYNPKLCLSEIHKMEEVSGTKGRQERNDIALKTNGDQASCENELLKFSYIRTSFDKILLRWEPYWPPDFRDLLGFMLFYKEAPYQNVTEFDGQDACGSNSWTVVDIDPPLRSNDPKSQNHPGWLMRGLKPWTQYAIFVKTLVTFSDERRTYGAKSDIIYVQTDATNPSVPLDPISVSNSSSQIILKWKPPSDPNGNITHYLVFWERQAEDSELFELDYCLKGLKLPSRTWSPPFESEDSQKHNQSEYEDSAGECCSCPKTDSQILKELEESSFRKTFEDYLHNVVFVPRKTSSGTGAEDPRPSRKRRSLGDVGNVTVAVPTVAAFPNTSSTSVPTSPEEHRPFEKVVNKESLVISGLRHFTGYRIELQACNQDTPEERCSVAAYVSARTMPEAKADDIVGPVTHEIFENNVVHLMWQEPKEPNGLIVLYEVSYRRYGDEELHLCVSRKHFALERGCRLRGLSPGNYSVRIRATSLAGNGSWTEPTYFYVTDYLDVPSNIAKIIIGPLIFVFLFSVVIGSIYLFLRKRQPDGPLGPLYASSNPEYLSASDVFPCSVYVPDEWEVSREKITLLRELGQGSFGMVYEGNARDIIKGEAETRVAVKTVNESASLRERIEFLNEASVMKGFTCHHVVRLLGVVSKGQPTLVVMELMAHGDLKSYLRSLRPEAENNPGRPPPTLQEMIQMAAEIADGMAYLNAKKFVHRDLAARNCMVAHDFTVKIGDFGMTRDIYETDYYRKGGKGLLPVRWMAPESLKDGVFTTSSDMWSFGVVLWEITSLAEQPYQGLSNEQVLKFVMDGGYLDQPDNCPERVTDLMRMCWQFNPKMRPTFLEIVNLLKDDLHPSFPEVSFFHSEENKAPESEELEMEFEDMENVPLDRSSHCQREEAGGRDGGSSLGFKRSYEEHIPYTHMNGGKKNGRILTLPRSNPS
In short: as §1

IRAK4 = target: T3, IRAK4 (UniProt Q9NWZ3)
T3 sequence (whole entry): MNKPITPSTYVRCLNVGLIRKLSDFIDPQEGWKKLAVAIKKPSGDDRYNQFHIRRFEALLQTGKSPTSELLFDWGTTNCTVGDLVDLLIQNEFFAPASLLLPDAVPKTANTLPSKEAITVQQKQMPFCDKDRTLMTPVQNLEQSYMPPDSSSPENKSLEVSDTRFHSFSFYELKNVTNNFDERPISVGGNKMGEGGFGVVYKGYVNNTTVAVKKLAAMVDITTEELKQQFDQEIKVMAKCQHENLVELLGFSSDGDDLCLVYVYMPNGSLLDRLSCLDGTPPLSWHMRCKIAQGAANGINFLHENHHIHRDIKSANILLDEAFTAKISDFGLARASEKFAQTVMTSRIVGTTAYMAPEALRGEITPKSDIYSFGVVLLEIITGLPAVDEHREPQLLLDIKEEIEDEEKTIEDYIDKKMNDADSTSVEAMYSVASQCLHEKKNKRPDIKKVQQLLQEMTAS
In short: as §1

PHKG2 = target: T4, PHKG2 (UniProt P15735)
T4 sequence (whole entry): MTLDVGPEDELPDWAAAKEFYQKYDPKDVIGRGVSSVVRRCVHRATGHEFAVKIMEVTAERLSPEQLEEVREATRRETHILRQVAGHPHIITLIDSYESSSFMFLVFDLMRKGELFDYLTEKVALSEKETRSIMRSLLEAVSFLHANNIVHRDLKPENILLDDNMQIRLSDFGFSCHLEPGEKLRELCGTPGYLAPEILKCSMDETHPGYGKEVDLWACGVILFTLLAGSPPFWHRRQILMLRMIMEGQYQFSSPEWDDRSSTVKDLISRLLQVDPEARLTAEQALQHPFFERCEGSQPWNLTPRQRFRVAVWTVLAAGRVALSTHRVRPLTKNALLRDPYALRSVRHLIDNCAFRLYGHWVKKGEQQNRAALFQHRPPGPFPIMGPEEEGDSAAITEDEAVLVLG
In short: as §1

PKN3 = PKN3 (UniProt Q6P5Z2); details: cell material: Lysate mix
PKN3, sequence (Q6P5Z2 whole entry, looked up): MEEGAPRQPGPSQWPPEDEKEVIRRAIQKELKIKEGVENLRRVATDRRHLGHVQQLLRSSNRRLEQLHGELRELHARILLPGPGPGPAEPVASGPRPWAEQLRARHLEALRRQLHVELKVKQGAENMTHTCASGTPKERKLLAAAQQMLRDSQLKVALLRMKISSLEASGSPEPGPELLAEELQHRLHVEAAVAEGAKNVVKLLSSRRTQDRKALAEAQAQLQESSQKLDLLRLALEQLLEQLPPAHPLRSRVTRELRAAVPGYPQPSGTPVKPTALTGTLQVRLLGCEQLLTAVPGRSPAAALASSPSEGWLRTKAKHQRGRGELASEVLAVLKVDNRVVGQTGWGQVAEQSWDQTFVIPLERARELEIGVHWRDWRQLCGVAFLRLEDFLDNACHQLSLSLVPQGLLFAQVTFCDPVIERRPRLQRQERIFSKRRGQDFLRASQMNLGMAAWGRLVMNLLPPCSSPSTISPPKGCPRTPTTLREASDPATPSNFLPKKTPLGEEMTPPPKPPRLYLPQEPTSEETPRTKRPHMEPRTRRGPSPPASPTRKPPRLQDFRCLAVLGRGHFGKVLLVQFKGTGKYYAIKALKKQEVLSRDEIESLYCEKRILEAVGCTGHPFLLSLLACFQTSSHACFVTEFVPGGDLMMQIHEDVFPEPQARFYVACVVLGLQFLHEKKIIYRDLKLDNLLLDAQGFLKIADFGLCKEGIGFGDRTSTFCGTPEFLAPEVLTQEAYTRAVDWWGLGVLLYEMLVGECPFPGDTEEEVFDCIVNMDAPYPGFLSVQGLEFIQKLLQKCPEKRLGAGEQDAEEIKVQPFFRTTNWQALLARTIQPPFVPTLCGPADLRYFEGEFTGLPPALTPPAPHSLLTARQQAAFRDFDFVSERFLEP
In short: as §1

TAOK3 = TAOK3 (UniProt Q9H2K8)
TAOK3, sequence (Q9H2K8 whole entry, looked up): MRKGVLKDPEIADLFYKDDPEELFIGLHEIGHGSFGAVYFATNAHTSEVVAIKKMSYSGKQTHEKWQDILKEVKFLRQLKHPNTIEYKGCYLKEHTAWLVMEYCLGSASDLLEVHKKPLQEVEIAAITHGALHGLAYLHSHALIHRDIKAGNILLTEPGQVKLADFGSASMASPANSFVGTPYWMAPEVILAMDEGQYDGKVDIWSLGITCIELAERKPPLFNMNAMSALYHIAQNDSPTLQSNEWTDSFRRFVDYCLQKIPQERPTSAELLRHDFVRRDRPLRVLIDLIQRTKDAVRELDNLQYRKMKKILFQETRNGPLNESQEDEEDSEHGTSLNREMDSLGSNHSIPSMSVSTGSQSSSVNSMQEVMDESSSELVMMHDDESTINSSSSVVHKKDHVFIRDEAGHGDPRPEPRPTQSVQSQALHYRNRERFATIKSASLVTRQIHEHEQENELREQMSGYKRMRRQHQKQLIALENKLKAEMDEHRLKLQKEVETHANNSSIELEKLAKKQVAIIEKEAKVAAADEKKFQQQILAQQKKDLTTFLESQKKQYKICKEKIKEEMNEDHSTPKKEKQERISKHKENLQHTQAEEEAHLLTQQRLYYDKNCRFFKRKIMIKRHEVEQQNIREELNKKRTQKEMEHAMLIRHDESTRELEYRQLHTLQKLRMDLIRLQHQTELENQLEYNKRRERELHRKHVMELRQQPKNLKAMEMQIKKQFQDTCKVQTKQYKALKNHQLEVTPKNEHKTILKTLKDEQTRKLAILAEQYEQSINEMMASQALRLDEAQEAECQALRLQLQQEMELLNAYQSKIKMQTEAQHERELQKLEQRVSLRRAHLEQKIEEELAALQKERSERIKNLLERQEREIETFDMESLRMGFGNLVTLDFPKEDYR
In short: as §1

UniProt P35916 = details: cell material: Lysate mix
UniProt P35916, sequence (P35916 whole entry): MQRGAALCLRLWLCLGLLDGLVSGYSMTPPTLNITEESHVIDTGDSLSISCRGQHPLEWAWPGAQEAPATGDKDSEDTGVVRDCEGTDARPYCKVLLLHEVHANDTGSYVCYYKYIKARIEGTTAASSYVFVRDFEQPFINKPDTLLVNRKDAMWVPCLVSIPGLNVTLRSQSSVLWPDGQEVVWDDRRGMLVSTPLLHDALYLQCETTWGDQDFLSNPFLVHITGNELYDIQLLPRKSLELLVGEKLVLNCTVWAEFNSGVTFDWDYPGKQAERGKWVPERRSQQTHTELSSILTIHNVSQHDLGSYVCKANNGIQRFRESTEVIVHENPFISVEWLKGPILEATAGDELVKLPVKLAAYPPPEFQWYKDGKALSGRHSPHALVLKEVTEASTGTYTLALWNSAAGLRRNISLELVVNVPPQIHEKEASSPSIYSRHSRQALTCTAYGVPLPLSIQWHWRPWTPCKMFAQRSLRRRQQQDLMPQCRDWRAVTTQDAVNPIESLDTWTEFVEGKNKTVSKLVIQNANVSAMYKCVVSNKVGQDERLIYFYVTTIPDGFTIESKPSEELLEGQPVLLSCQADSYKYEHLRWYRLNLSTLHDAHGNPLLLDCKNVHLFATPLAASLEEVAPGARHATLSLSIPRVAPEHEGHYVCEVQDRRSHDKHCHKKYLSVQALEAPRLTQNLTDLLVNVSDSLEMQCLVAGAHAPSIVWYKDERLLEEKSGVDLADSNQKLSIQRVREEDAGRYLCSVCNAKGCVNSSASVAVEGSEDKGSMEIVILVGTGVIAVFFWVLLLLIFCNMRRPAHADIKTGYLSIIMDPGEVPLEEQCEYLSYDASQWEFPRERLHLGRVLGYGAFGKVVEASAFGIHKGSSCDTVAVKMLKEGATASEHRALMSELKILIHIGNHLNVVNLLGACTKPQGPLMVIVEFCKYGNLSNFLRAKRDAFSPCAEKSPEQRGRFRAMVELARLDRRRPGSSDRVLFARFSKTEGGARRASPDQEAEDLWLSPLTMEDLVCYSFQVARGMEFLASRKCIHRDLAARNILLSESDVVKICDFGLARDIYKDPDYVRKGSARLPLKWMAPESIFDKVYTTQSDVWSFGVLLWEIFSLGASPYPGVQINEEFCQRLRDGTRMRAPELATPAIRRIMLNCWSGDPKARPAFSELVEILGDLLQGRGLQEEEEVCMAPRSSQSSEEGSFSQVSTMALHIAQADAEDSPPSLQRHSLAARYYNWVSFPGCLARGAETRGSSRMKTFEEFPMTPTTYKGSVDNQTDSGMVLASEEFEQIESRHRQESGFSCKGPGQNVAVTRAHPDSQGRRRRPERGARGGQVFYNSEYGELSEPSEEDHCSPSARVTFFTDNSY
In short: as §1

UniProt Q9BUB5 = target: UniProt Q9BUB5
UniProt Q9BUB5, sequence (Q9BUB5 whole entry, looked up): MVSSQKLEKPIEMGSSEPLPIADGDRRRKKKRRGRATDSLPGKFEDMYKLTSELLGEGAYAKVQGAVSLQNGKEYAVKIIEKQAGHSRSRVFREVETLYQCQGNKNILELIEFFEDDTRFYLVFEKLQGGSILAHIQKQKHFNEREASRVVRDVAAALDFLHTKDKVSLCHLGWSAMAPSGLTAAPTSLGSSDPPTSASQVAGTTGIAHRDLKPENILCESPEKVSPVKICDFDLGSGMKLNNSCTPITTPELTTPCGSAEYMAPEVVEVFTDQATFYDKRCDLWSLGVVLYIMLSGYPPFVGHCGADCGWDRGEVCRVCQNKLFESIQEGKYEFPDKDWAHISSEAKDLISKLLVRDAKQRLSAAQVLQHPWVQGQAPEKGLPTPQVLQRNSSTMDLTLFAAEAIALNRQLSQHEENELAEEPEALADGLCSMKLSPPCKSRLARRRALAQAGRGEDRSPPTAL
In short: as §1

Compound | pIC50 (DDR2) | pIC50 (DYRK2; cell material: Lysate mix) | pIC50 (FGR; cell material: Lysate mix) | pIC50 (INSR; cell material: Lysate mix) | pIC50 (IRAK4; cell material: Lysate mix) | pIC50 (PHKG2; cell material: Lysate mix) | pIC50 (PKN3) | pIC50 (TAOK3; cell material: Lysate mix) | pIC50 (UniProt P35916) | pIC50 (UniProt Q9BUB5; cell material: Lysate mix) | pIC50 (DYRK2; cell material: Jurkat cells) | pIC50 (DYRK2; cell material: Jurkat lysate) | pIC50 (FGR; cell material: Jurkat lysate) | pIC50 (INSR; cell material: Jurkat cells) | pIC50 (INSR; cell material: Jurkat lysate) | pIC50 (IRAK4; cell material: Jurkat cells) | pIC50 (IRAK4; cell material: Jurkat lysate) | pIC50 (PHKG2; cell material: Jurkat cells) | pIC50 (PHKG2; cell material: Jurkat lysate) | pIC50 (TAOK3; cell material: Jurkat cells) | pIC50 (TAOK3; cell material: Jurkat lysate) | pIC50 (UniProt Q9BUB5; cell material: Jurkat cells) | pIC50 (UniProt Q9BUB5; cell material: Jurkat lysate) | pIC50 (FGR; cell material: Jurkat cells)
CCNC(=O)c1cc(Nc2cc(C)[nH]n2)nc(N2CCN(Cc3ccc(S(=O)(=O)F)cc3)CC2)n1 | < 4.52 | < 4.52 | 5.92 | < 4.52 | < 4.52 | < 4.52 | < 4.52 | < 4.52 | < 4.52 | < 4.52 |  |  |  |  |  |  |  |  |  |  |  |  |  | 
CCNC(=O)c1cc(Nc2cc(C3CC3)[nH]n2)nc(N2CCN(Cc3ccc(S(=O)(=O)F)cc3)CC2)n1 | 4.57 | 4.65 | 5.92 | < 4.52 | 5.19 | < 4.52 | < 4.52 | < 4.52 | < 4.52 | < 4.52 |  |  |  |  |  |  |  |  |  |  |  |  |  | 
Cc1cc(Nc2cc(C(=O)NCCNC(=O)OC3CC/C=C/CCC3)nc(N3CCN(Cc4ccc(S(=O)(=O)F)cc4)CC3)n2)n[nH]1 (centres undefined) | < 4.52 | < 4.52 | < 4.52 | < 4.52 | < 4.52 | < 4.52 | < 4.52 | 6.03 | < 4.52 | < 4.52 |  |  |  |  |  |  |  |  |  |  |  |  |  | 
C#CCNC(=O)c1cc(Nc2cc(C3CC3)[nH]n2)nc(N2CCN(Cc3ccc(S(=O)(=O)F)cc3)CC2)n1 | < 4.52 |  | 6.2 | < 4.52 | 5.06 | < 4.52 | < 4.52 | < 4.52 | < 4.52 | < 4.52 | < 4.52 | < 4.52 | 5.6 | 4.82 | < 4.52 | 6.03 | 4.62 | 5.16 | < 4.52 | 5.56 | < 4.52 | 5.31 | < 4.52 | 
C#CCNC(=O)c1cc(Nc2cc(C)[nH]n2)nc(N2CCN(Cc3ccc(S(=O)(=O)F)cc3)CC2)n1 | < 4.52 | < 4.52 | 5.51 | < 4.52 | < 4.52 | < 4.52 | < 4.52 | < 4.52 | < 4.52 | < 4.52 |  |  |  |  |  |  |  |  |  |  |  |  |  | 
O=C(NCCNC(=O)c1cc(Nc2cc(C3CC3)[nH]n2)nc(N2CCN(Cc3ccc(S(=O)(=O)F)cc3)CC2)n1)OC1CC/C=C/CCC1 (centres undefined) | < 4.52 | < 4.52 |  | < 4.52 | < 4.52 | < 4.52 | < 4.52 | 5.55 | < 4.52 | < 4.52 | < 4.52 | < 4.52 | < 4.52 | < 4.52 | < 4.52 | 5.24 | < 4.52 | < 4.52 | < 4.52 | 6.22 | 5.61 |  | < 4.52 | 5.92
